Laboratory results taken from patent publication US20260207654A1, “HEPARAN SULFATE AND ITS MIMETICS AS CHEMOKINE INHIBITORS” (INDIAN INSTITUTE OF SCIENCE EDUCATION AND RESEARCH, priority 2021, published 2026).

Columns and labels:
CCL13 = CCL13 (Homo sapiens, UniProt Q99616); test: Chemokine glycan microarray binding assay; details: maximum RFU set as 100% binding, average across 2 glycan concentrations and 3 chemokine dilutions (n=6)
How it was run: (§1)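 Glycans were printed covalently on epoxy glass slides (100 μM, four replicates), then ethanolamine-quenched and blocked with 1% ovalbumin in PBS pH 7.3. Chemokines at three serial dilutions bound for 2 h at RT and were detected with biotinylated secondary antibody (1 μg/mL) plus Cy3-streptavidin. Values are average ranks relative to maximal RFU per block.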

CCL2 [1] = target: T1, CCL2 (Homo sapiens, UniProt P13500); test: Chemokine glycan microarray binding assay; details: maximum RFU set as 100% binding, average across 2 glycan concentrations and 3 chemokine dilutions (n=6)
How it was run: as §1

CCL21 = target: T2, CCL21 (Homo sapiens, UniProt O00585); test: Chemokine glycan microarray binding assay; details: maximum RFU set as 100% binding, average across 2 glycan concentrations and 3 chemokine dilutions (n=6)
T2 sequence (O00585 24-134): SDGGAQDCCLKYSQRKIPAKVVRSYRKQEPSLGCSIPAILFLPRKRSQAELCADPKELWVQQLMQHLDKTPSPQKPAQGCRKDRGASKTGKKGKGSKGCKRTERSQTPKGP
How it was run: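 Read-out is Cy3 fluorescence (RFU) of chemokine bound to covalently arrayed glycans, converted to rank against the block's maximum signal and averaged over three chemokine dilutions. Binding ran 2 h at room temperature in PBS pH 7.3 containing 1% ovalbumin; detection used a biotinylated secondary antibody and Cy3-streptavidin.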

CCL28 = target: T3, CCL28 (Homo sapiens, UniProt Q9NRJ3); test: Chemokine glycan microarray binding assay; details: maximum RFU set as 100% binding, average across 2 glycan concentrations and 3 chemokine dilutions (n=6)
T3 sequence (Q9NRJ3 20-127): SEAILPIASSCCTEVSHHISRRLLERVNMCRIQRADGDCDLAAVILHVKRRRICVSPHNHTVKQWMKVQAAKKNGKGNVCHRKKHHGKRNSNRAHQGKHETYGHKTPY
How it was run: as §1

CCL5 [2] = target: T4, CCL5 (Homo sapiens, UniProt P13501); test: Chemokine glycan microarray binding assay; details: maximum RFU set as 100% binding, average across 2 glycan concentrations and 3 chemokine dilutions (n=6)
T4 sequence (P13501 24-91): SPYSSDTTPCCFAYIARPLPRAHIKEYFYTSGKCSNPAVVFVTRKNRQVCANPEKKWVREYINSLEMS
How it was run: as §1

CCL7 [3] = target: T5, CCL7 (Homo sapiens, UniProt P80098); test: Chemokine glycan microarray binding assay; details: maximum RFU set as 100% binding, average across 2 glycan concentrations and 3 chemokine dilutions (n=6)
How it was run: as §1

CXCL10 [4] = target: T6, CXCL10 (Homo sapiens, UniProt P02778); test: Chemokine glycan microarray binding assay; details: maximum RFU set as 100% binding, average across 2 glycan concentrations and 3 chemokine dilutions (n=6)
T6 sequence (P02778 22-98): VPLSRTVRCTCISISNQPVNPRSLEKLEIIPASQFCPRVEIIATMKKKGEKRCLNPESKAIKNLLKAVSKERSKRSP
How it was run: as §1

CXCL12 [5] = target: T7, CXCL12 (Homo sapiens, UniProt P48061); test: Chemokine glycan microarray binding assay; details: maximum RFU set as 100% binding, average across 2 glycan concentrations and 3 chemokine dilutions (n=6)
How it was run: as §1

CXCL8 [6] = target: T8, CXCL8 (Homo sapiens, UniProt P10145); test: Chemokine glycan microarray binding assay; details: maximum RFU set as 100% binding, average across 2 glycan concentrations and 3 chemokine dilutions (n=6)
T8 sequence (P10145 21-99): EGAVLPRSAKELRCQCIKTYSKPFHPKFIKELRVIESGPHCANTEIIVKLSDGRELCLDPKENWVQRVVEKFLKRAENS
How it was run: as §1

CCL2 [7] = target: T1, CCL2; test: Surface Plasmon Resonance (SPR) binding kinetics; details: compound immobilized on CM5 chip, 25° C., 1:1 model
Procedure: (§2) FIG. 1: SPR analysis of chemokines binding profile for the compounds of present invention: SPR binding analysis of the interaction between the examples 12, 17, and 19, chemokines were reported, Concentrations of chemokines were 0.05-2 μM. A global fit according to a 1:1 binding model was applied (black curves).
(§3) Surface Plasmon Resonance (SPR) binding kinetics The compound of present invention (test compound, Example 12) was covalently immobilized on sensor chip via coupling reaction. At first, the dextran matrix on CM5 chip was activated with NHS (0.02 M) and EDC coupling reagent (0.2 M) at a flow rate of 5 μL min^−1 for 15 min before activating with 50 μL of test compound (0.5 mM) in HBS-EP buffer. In the negative control cell after EDC and NHS activation, 0.5 mM of ethanol amine solution was flowed. The positive RU response on test compound confirmed immobilization of the HS ligand on CM5 chips. Then, different chemokines at a flow rate of 50 μL/min and 25° C. in HBS-EP buffer without growth factor was then flowed over the sensor surface for 3 min to enable association/dissociation. Kinetic analysis was performed using the BIA evaluation software for T100. Association and dissociation phase data were globally fitted to a simple 1:1 interaction model.
(§4) Table 2: SPR analysis of kinetic rate constants and equilibrium affinities of compounds of present invention binding to chemokines
as §3, with “The” for “Surface Plasmon Resonance (SPR) binding kinetics The”, “12, 17 & 18)” for “12)”

CCL5 [8] = target: T4, CCL5; test: Surface Plasmon Resonance (SPR) binding kinetics; details: compound immobilized on CM5 chip, 25° C., 1:1 model
Procedure: as §2, §3, §4
as §3, with “The” for “Surface Plasmon Resonance (SPR) binding kinetics The”, “12, 17 & 18)” for “12)”

CCL7 [9] = target: T5, CCL7; test: Surface Plasmon Resonance (SPR) binding kinetics; details: compound immobilized on CM5 chip, 25° C., 1:1 model
Procedure: as §2, §3, §4
as §3, with “The” for “Surface Plasmon Resonance (SPR) binding kinetics The”, “12, 17 & 18)” for “12)”

CXCL10 [10] = target: T6, CXCL10; test: Surface Plasmon Resonance (SPR) binding kinetics; details: compound immobilized on CM5 chip, 25° C., 1:1 model
Procedure: as §2, §3, §4
as §3, with “The” for “Surface Plasmon Resonance (SPR) binding kinetics The”, “12, 17 & 18)” for “12)”

CXCL8 [11] = target: T8, CXCL8; test: Surface Plasmon Resonance (SPR) binding kinetics; details: compound immobilized on CM5 chip, 25° C., 1:1 model
Procedure: as §2, §3, §4
as §3, with “The” for “Surface Plasmon Resonance (SPR) binding kinetics The”, “12, 17 & 18)” for “12)”

CXCL12 [12] = target: T7, CXCL12; test: Surface Plasmon Resonance (SPR) binding kinetics; details: compound immobilized on CM5 chip, 25° C., 1:1 model
Procedure: as §2, §3, §4
as §3, with “The” for “Surface Plasmon Resonance (SPR) binding kinetics The”, “12, 17 & 18)” for “12)”

T7 sequence (P48061 22-93, species assumed): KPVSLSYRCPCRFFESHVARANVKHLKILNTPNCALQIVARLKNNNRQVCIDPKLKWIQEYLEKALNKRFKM
T5 sequence (P80098 24-99, species assumed): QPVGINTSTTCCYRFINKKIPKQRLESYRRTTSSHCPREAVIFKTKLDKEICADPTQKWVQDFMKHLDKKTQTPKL
T1 sequence (P13500 24-99, species assumed): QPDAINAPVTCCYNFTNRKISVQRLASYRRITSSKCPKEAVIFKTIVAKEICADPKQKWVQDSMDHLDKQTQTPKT
CCL13, sequence (Q99616 17-98, species assumed): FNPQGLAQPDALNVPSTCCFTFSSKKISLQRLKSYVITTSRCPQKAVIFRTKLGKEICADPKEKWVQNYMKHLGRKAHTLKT

| mean rank binding to CCL13 (CCL13) | mean rank binding to CCL2 (CCL2 [1]) | mean rank binding to CCL21 (CCL21) | mean rank binding to CCL28 (CCL28) | mean rank binding to CCL5 (CCL5 [2]) | mean rank binding to CCL7 (CCL7 [3]) | mean rank binding to CXCL10 (CXCL10 [4]) | mean rank binding to CXCL12 (CXCL12 [5]) | mean rank binding to CXCL8 (CXCL8 [6]) | Koff (CCL2 [7]) | Kon (CCL2 [7]) | Koff (CCL5 [8]) | Kon (CCL5 [8]) | Kd (CXCL10 [10]) | Koff (CXCL10 [10]) | Kon (CXCL10 [10]) | Kd (CXCL8 [11]) | Koff (CXCL8 [11]) | Kon (CXCL8 [11]) | SMILES | Kd (CCL5 [8]) | further results |
| --- | --- | --- | --- | --- | --- | --- | --- | --- | --- | --- | --- | --- | --- | --- | --- | --- | --- | --- | --- | --- | --- |
| 69% | 95% | 73% | 54% | 82% | 89% | 96% | 80% | 94% | 2.11 ± 0.34 × 10^−1 S^−1 | 11.17 ± 0.32 × 10^4 M^−1S^−1 | 2.98 ± 0.31 × 10^−1 S^−1 | 4.37 ± 0.31 × 10^4 M^−1S^−1 | 11 ± 0.37 µM | 1.69 ± 0.33 × 10^−1 S^−1 | 1.53 ± 0.26 × 10^4 M^−1S^−1 | 11.7 ± 0.17 µM | 2.18 ± 0.28 × 10^−1 S^−1 | 1.87 ± 0.22 × 10^4 M^−1S^−1 | NCCCO[C@@H]1O[C@@H](C(=O)O)[C@@H](O[C@H]2O[C@H](COS(=O)(=O)O)[C@@H](O[C@@H]3O[C@@H](C(=O)O)[C@@H](O[C@H]4O[C@H](COS(=O)(=O)O)[C@@H](O)[C@H](OS(=O)(=O)O)[C@H]4N)[C@H](O)[C@H]3O)[C@H](OS(=O)(=O)O)[C@H]2N)[C@H](O)[C@H]1O [Example 17, 3-Aminopropyl-O-[(2-amino-6-O-sulfonato-3-O-sulfonato-2-deoxy-α-D-glucopyranosyl)-(1→4)-O-(α-L-idopyranosyluronate)-(1→4)-O-(2-amino-6-O-sulfonato-3-O-sulfonato-2-deoxy-α-D-glucopyranosyl)]-(1→4)-O-α-L-idopyranosiduronate] | 6.81 ± 0.33 µM | Kd (CCL7 [9]): 11.3 ± 0.18 µM; Koff (CCL7 [9]): 2.86 ± 0.21 × 10^−1 S^−1; Kon (CCL7 [9]): 2.53 ± 0.15 × 10^4 M^−1S^−1 |
| 74% | 80% | 66% | 79% | 95% | 91% | 89% | 79% | 79% | 2.03 ± 0.17 × 10^−1 S^−1 | 2.07 ± 0.13 × 10^4 M^−1S^−1 | 2.14 ± 0.48 × 10^−1 S^−1 | 9.15 ± 0.34 × 10^4 M^−1S^−1 | 10.7 ± 0.37 µM | 2.24 ± 0.35 × 10^−1 S^−1 | 2.07 ± 0.26 × 10^4 M^−1S^−1 | 15.9 ± 0.23 µM | 1.96 ± 0.29 × 10^−1 S^−1 | 1.23 ± 0.17 × 10^4 M^−1S^−1 | NCCCO[C@@H]1OC(C(=O)O)[C@@H](O[C@H]2OC(COS(=O)(=O)O)[C@@H](O[C@@H]3OC(C(=O)O)[C@@H](O[C@H]4OC(COS(=O)(=O)O)[C@@H](O)C(O)C4N)C(O)C3OS(=O)(=O)O)C(O)C2N)C(O)C1OS(=O)(=O)O (stereo partly drawn) [Example 19, 3-Aminopropyl-O-[(2-amino-6-O-sulfonato-2-deoxy-α-D-glucopyranosyl)-(1→4)-O-(2-O-sulfonato-α-L-idopyranosyluronate)-(1→4)-O-(2-amino-6-O-sulfonato-2-deoxy-α-D-glucopyranosyl)]-(1→4)-O-2-O-sulfonato-α-L-idopyranosiduronate] |  | Kd (CCL2 [7]): 9.82 ± 0.18 µM; Kd (CCL7 [9]): 11.5 ± 0.17 µM; Koff (CCL7 [9]): 2.25 ± 0.29 × 10^−1 S^−1; Kon (CCL7 [9]): 1.96 ± 0.22 × 10^4 M^−1S^−1 |

| SMILES | mean rank binding to CCL13 (CCL13) | mean rank binding to CCL2 (CCL2 [1]) | mean rank binding to CCL21 (CCL21) | mean rank binding to CCL28 (CCL28) | mean rank binding to CCL5 (CCL5 [2]) | mean rank binding to CCL7 (CCL7 [3]) | mean rank binding to CXCL10 (CXCL10 [4]) | mean rank binding to CXCL12 (CXCL12 [5]) | mean rank binding to CXCL8 (CXCL8 [6]) | Koff (CCL2 [7]) | Kon (CCL2 [7]) | Koff (CCL5 [8]) | Kon (CCL5 [8]) | Kd (CXCL10 [10]) | Koff (CXCL10 [10]) | Kon (CXCL10 [10]) | Kd (CXCL8 [11]) | Koff (CXCL8 [11]) | Kon (CXCL8 [11]) | Kd (CCL5 [8]) | further results |
| --- | --- | --- | --- | --- | --- | --- | --- | --- | --- | --- | --- | --- | --- | --- | --- | --- | --- | --- | --- | --- | --- |
| NCCOCCO[C@@H]1O[C@@H](C(=O)O)[C@@H](O[C@@H]2O[C@@H](C(=O)O)[C@@H](O[C@@H]3O[C@@H](C(=O)O)[C@@H](O[C@@H]4O[C@@H](C(=O)O)[C@@H](OS(=O)(=O)O)[C@H](O)[C@H]4OS(=O)(=O)O)[C@H](O)[C@H]3OS(=O)(=O)O)[C@H](O)[C@H]2OS(=O)(=O)O)[C@H](O)[C@H]1OS(=O)(=O)O [Example 12, Ethoxy-2-aminoethoxyl-O-((2-4-O-disulfonato)-α-L-idopyranosyl Uronic Acid-α(1->4)(2-O-sulfonato)-α-L-idopyranosyl Uronic Acid-α(1→4)(2-O-sulfonato)-α-L-idopyranosyl Uronic Acid-α(1→4)(2-O-sulfonato))-α-L-idopyranoside Uronic Acid] | 70% | 88% | 50% | 72% | 91% | 80% | 87% | 91% | 96% | 2.1 ± 0.5 × 10^−1 S^−1 | 1.26 ± 0.08 × 10^5 M^−1S^−1 | 2.4 ± 0.38 × 10^−1 S^−1 | 4.2 ± 0.46 × 10^4 M^−1S^−1 | 15.3 ± 0.21 µM | 2.2 ± 0.38 × 10^−1 S^−1 | 1.44 ± 0.46 × 10^4 M^−1S^−1 | 9.34 ± 0.21 µM | 2.96 ± 0.1 × 10^−1 S^−1 | 3.16 ± 0.08 × 10^5 M^−1S^−1 | 5.72 ± 0.24 µM | Kd (CCL2 [7]): 1.67 ± 0.3 µM; Kd (CXCL12 [12]): 18.8 ± 0.44 µM; Koff (CXCL12 [12]): 2.1 ± 0.78 × 10^−1 S^−1; Kon (CXCL12 [12]): 1.1 ± 0.46 × 10^4 M^−1S^−1 |
